Results published in PMC5086919, “Antileukemic Scalarane Sesterterpenoids and Meroditerpenoid from Carteriospongia (Phyllospongia) sp., Induce Apoptosis via Dual Inhibitory Effects on Topoisomerase II and Hsp90” (Scientific Reports, 2016).
In brackets after ≈: the same amount, converted by molar mass.

Experiments:
Molt 4 cells [1] = assay: ROS generation, carboxy-H2DCFDA flow cytometry; assay type: cell-based, human; settings: 0.0625 μg/mL
Method: Oxidative stress is manifested by ROS overexpression and cannot be balanced by the available antioxidant machinery. Compound 1 can damage the integrity of mitochondria, which are the major production sites of the superoxide anion, […]. The induction of the intracellular formation of ROS by 1 was determined with a carboxyl derivative of fluorescein, carboxy-H2DCFDA dye using flow cytometric analysis. […] In addition, ROS generation could induce ER stress leading to mitochondria-related apoptosis. To further investigate if ER stress is involved in the apoptotic effect induced by 1, Western blot analysis was used to determine the expression of ER stress-related proteins. […] Furthermore, the effect of 1 on the release of intracellular Ca^2+, was evaluated using fluorescent calcium indicator, Fluo 3. […] The induction of the typical executor caspases-3 and −7, as well as γH2AX, was also observed using Western blot analysis (Fig. 7D). To confirm the induction of DNA damage by 1 in Molt 4 cells, a comet assay under neutral electrophoresis condition was utilized. The effect of 1 (0.0625 μg/mL) at different time intervals (0, 3, 6 and 9 h) on the level of nuclear DNA integrity was determined. […] The DNA migration was represented by the induction of DSBs in a time-dependent increase, as indicated by the abnormal tails’ sizes in the comet assay.
These assays were performed as described previously. […] In brief, the treated cells were labeled with a specific fluorescent dye for 30 min. After labeling, cells were washed with PBS and resuspended in PBS at a concentration of 1 × 10^6 cells/mL before analysis via flow cytometry.

Molt 4 cells [2] = assay: Annexin V/PI apoptosis assay; assay type: cell-based, human
Method: The externalization of phosphatidylserine (PS) and membrane integrity were quantified using an annexin V- FITC staining kit[72]. In brief, 10^6 cells were grown in 35 mm diameter plates and were labeled with annexin V-FITC (10 μg/mL) and PI (20 μg/mL) prior to harvesting. After labeling, all plates were washed with a binding buffer and harvested. Cells were resuspended in the binding buffer at a concentration of 2 × 10^5 cells/mL before analysis by flow cytometer FACS-Calibur (Becton-Dickinson, San Jose, CA, USA) and CellQuest software. Approximately 10,000 cells were counted for each determination.

[3] = tested on: ER stress-related proteins in Molt 4 cells; assay: Western blot of ER stress-related proteins; assay type: cell-based, human; settings: 0.0625 μg/mL, time-dependent
Method: Oxidative stress is manifested by ROS overexpression and cannot be balanced by the available antioxidant machinery. Compound 1 can damage the integrity of mitochondria, which are the major production sites of the superoxide anion, […]. The induction of the intracellular formation of ROS by 1 was determined with a carboxyl derivative of fluorescein, carboxy-H2DCFDA dye using flow cytometric analysis. […] In addition, ROS generation could induce ER stress leading to mitochondria-related apoptosis. To further investigate if ER stress is involved in the apoptotic effect induced by 1, Western blot analysis was used to determine the expression of ER stress-related proteins. […] Furthermore, the effect of 1 on the release of intracellular Ca^2+, was evaluated using fluorescent calcium indicator, Fluo 3. […] The effect of 1 (0.0625 μg/mL) at different time intervals (0, 3, 6 and 9 h) on the level of nuclear DNA integrity was determined. […]
Cell lysates were prepared by treating the cells for 30 min in RIPA lysis buffer, 1% Nonidet P-40, 0.5% sodium deoxycholate, 0.1% sodium dodecyl sulphate (SDS), 1 mM sodium orthovanadate, 100 μg/mL phenylmethylsulfonyl fluoride and 30 μg/mL aprotinin) (all chemicals were from Sigma)[38]. The lysates were centrifuged at 20,000 × g for 30 min, and the protein concentration in the supernatant was determined using a BCA protein assay kit (Pierce). […]

[4] = tested on: Hsp90 client proteins in Molt 4 cells; assay: Western blot of Hsp90, Hsp70, HSF 1 and Hsp90 client proteins; assay type: cell-based, human; settings: 0.0625 μg/mL, different time intervals
Method: (§1) It was also reported that the induction of Hsp70 is the biomarker of Hsp90 with N-terminal inhibition. Aiming to understand the relation between Hsp90 function and the expression of Hsp70 and 90 clients, we treated Molt 4 cells with 1 (0.0625 μg/mL) for different time intervals. […] The majority of Hsps accumulate in subcellular localizations that determine whether a cell is going to die or differentiate. Erythroblasts with accumulated nuclear Hsp70 continued their differentiation process during the formation of red blood cells. Furthermore, we identified the localization of Hsp70 in response to 1 treatment using immunofluorescence by confocal microscope.
Cell lysates were prepared by treating the cells for 30 min in RIPA lysis buffer, 1% Nonidet P-40, 0.5% sodium deoxycholate, 0.1% sodium dodecyl sulphate (SDS), 1 mM sodium orthovanadate, 100 μg/mL phenylmethylsulfonyl fluoride and 30 μg/mL aprotinin) (all chemicals were from Sigma)[38]. The lysates were centrifuged at 20,000 × g for 30 min, and the protein concentration in the supernatant was determined using a BCA protein assay kit (Pierce). Equal amounts of proteins were respectively separated by 7.5%, 10% or 12% of SDS-polyacrylamide gel electrophoresis and then were electrotransferred to a PVDF membrane. The membrane was blocked with a solution containing 5% non-fat dry milk TBST buffer (20 mM Tris-HCl, pH 7.4, 150 mM NaCl and 0.1% Tween 20) for 1 h and washed with TBST buffer. The protein expressions were monitored by immunoblotting using specific antibodies. These proteins were detected by an enhanced chemiluminescence kit (Pierce).

Hsp70 in Molt 4 cells = assay: Immunofluorescence localization of Hsp70, confocal microscope; assay type: cell-based, human
Method: as §1
After treatment with the tested compound, cells were fixed with 4% paraformaldehyde in 50 mM HEPES buffer (pH 7.3) for 30 min, and permeabilized for 20 min with 0.2% Trition X-100 in PBS (pH 7.4). To prevent non-specific protein binding, cells were incubated with 5% BSA in PBS containing 0.05% Trition X-100 (T-PBS) for 1 h at room temperature. Cells were then incubated with the primary Hsp70 antibodies (1: 500) for 2 h and further with secondary antibodies (Alexa Fluor […] goat anti-mouse IgG (H + L) (Life Technologies, Carlsbad, CA, USA) diluted at 1:1000 for 1 h at room temperature. After washing with PBS, cells were observed under a FV1000 confocal laser scanning microscope (Olympus, Tokyo, Japan).

Ca9-22 cells = assay: MTT antiproliferative assay, oral Ca9-22 cells; settings: Homo sapiens, Ca9-22, 72 h, read-out: IC50, cytotoxicity, Oral Ca9-22
Description: (§2) Several cancer cell lines including leukemia K562, Molt 4, and HL 60 cells, prostate cancer LNCaP cells, colon cancer DLD-1 cells and breast cancer T-47D cells were used to evaluate the antiproliferative activity.
(§3) The cell lines were obtained from the American Type Culture Collection (ATCC, Manassas, VA, USA). […] Dimethyl sulfoxide (DMSO), 3-(4,5-dimethylthiazol-2-yl)-2,5-diphenyl-tetrazolium bromide (MTT) and all other chemicals were purchased from Sigma-Aldrich (St. Louis, MO, USA).

K562 cells = assay: MTT antiproliferative assay, leukemia K562 cells; settings: Homo sapiens, K562, 72 h, read-out: IC50, cytotoxicity, Leukemia K562
Description: as §2, §3

U937 cells = assay: MTT antiproliferative assay, lymphoma U937 cells; settings: Homo sapiens, U-937, 72 h, read-out: IC50, cytotoxicity, Lymphoma U937
HL 60 cells = assay: MTT antiproliferative assay, leukemia HL 60 cells; settings: Homo sapiens, HL-60, 72 h, read-out: IC50, cytotoxicity, Leukemia HL 60
Description: as §2, §3

Sup-T1 cells = assay: MTT antiproliferative assay, lymphoma Sup-T1 cells; settings: Homo sapiens, SUP-T1, 72 h, read-out: IC50, cytotoxicity, Lymphoma Sup-T1
DLD-1 cells = assay: MTT antiproliferative assay, colon cancer DLD-1 cells; settings: Homo sapiens, DLD-1, 72 h, read-out: IC50, cytotoxicity, Colon DLD-1
Description: as §2, §3

T-47D cells = assay: MTT antiproliferative assay, breast cancer T-47D cells; settings: Homo sapiens, T47D, 72 h, read-out: IC50, cytotoxicity, Breast T-47D
Description: as §2, §3

## CC[C@@]1(C)CCC[C@]2(C)[C@H]3C[C@@H](OC(=O)C[C@@H](C)O)[C@]4(C)[C@@H](C=O)C(C(C)=O)=CC[C@H]4[C@]3(C)CC[C@@H]12 (relative stereo) [Compound 1, 12β-(3′β-hydroxybutanoyloxy)-20,24-dimethyl-24-oxo-scalara-16-en-25-al]
Molt 4 cells [1]; 0.5 h
  increase in ROS levels compared with MFI of control: 2.09 fold
Molt 4 cells [1]; 1 h
  increase in ROS levels compared with MFI of control: 1.51 fold
Molt 4 cells [1]; 2 h
  increase in ROS levels compared with MFI of control: 1.06 fold
Molt 4 cells [1]; 3 h
  increase in ROS levels compared with MFI of control: 1.01 fold
Molt 4 cells [2]; 0, 0.0625, 0.125 and 0.25 μg/mL, 24 h, annexin-V/PI
  apoptotic population of Molt 4 cells: increase in the apoptotic population
Molt 4 cells [2]; 24 h, flow cytometry
  lowest dose inducing mitochondrial dysfunction and apoptotic cell death: 0.0625 µg/mL
Molt 4 cells [2]; Molt 4 cells, molar value in brackets
  concentration that triggered MMP disruption and apoptosis: 125 nM
[3]
  levels of ER stress-related proteins: promoted the levels of Bip, Chop, Grp 94 as well as the activation and cleavage of ATF 6 but suppressed the levels of PERK and IRE 1
[4]
  expression of HSF 1 protein: attenuated
  expression of Hsp70: increased in a time-dependent manner
  expression of Hsp90 client proteins (p70S6k, NFκB, Raf-1, p-GSK3β, MEK 1, XIAP, MDM 2, Rb2, CDK4, HIF 1, HSF1): suppression of Hsp90 client proteins was observed
  expression of Hsp90 protein: did not notably attenuate the expression of Hsp90 protein
Hsp70 in Molt 4 cells
  localization of Hsp70: predominantly accumulated in cytosol
Ca9-22 cells
  IC50: 0.1 µg/mL (≈ 0.2 µM)
K562 cells
  IC50: 0.01 µg/mL (≈ 0.02 µM)
U937 cells
  IC50: 0.01 µg/mL (≈ 0.02 µM)
HL 60 cells
  IC50: 0.01 µg/mL (≈ 0.02 µM)
Sup-T1 cells
  IC50: 0.13 µg/mL (≈ 0.26 µM)
DLD-1 cells
  IC50: 2.33 µg/mL (≈ 4.65 µM)
T-47D cells
  IC50: 2.19 µg/mL (≈ 4.37 µM)
